Laboratory results taken from US20240182460A1, “ALLOSTERIC CHROMENONE INHIBITORS OF PHOSPHOINOSITIDE 3-KINASE (PI3K) FOR THE TREATMENT OF DISEASE” (PETRA PHARMA CORPORATION, priority 2022, published 2024).

assay: Metabolic stability and intrinsic clearance in human liver microsomes (MICS); format: in vitro ADME; conditions: human, microsomes, pH 7.4
Method: Metabolic Stability and Intrinsic Clearance in Liver Microsomes (MICS)
One objective of this assay is to measure in vitro metabolic stability of a test compound in liver microsomes of one or more different species. The concentration of a control compound in the reaction system is evaluated by LC/MS/MS for calculating intrinsic clearance of a test compound and estimating the stability of the control compound and test compound in liver microsomes of one or more different species.
Microsomes (MICS). Human Liver Microsomes (HLM), Monkey Liver Microsomes (MKLM), Dog Liver Microsomes (DLM), Rat Liver Microsomes (RLM), and Mouse Liver Microsomes (MLM) are obtained at a concentration of 20 mg/mL protein from commercial sources and stored in a −80° C. freezer. Prior to use, liver microsomes are removed from the freezer and allowed to thaw in a 37° C. water bath and then stored on wet ice.
Stock Solutions. Test Compound (TC) Stock Solutions are prepared in DMSO at a concentration of 10 mM and stored for later use. Positive Control (PC) Stock Solutions of verapamil·HCL (FW: 491.1 g/mol) in DMSO are prepared at a concentration of 10 mM (4.91 mg/mL), and stored at the condition same as the stock solutions of test compounds.
Phosphate Buffer. Phosphate Buffer (100 mM, pH 7.4) is prepared by combining a Solution A and a Solution B as follows.
To prepare Solution A, 7.098 g of disodium hydrogen phosphate was combined with 500 mL of pure water and sonicated to dissolve. To prepare the Solution B, 3.400 g of potassium dihydrogen phosphate was combined with 250 mL of pure water and sonicated to dissolve. Solution A was placed on a stirrer and Solution B was slowly added into Solution A until the pH reached 7.4.
NADPH Solution. A 10 mM NADPH Solution is prepared by dissolving NADPH (MW: 833.4 g/mol) at 8.334 mg/mL in phosphate buffer (100 mM, pH 7.4).
Microsome Master Solution. A Microsome Master Solution is prepared by adding 6.25 μL microsomes (20 mg/mL) to 216.25 μL Phosphate Buffer (100 mM). The final concentration is Phosphate Buffer (100 mM); microsomes (0.5 mg/mL).
Dilution of Stock Solutions. The TC Stock Solutions (10 mM in DMSO) and the PC Stock Solutions (10 mM in DMSO) are diluted by adding 3 μL of the TC Stock Solution or the PC Stock Solution to 297 μL of 50% acetonitrile/50% water.
Incubation. Two separated experiments were performed as follows. a) With Cofactors (NADPH): 25 μL of 10 mM NADPH was added to the incubations. The final concentrations of
microsomes and NADPH were 0.5 mg/mL and 1 mM, respectively. b) Without Cofactors (NADPH): 25 μL of 100 mM Phosphate buffer was added to the incubations. The final concentration of microsomes was 0.5 mg/mL. The mixture was pre-warmed at 37° C. for 10 minutes.
The reaction was started with the addition of 2.5 μL of 100 μM PC solution or TC solutions.
Verapamil was used as PC in this study. The final concentration of test compound or control compound was 1 μM. The incubation solution was incubated in water batch at 37° C.
Reaction Termination. Aliquots of 30 μL were taken from the reaction solution at 0.5, 5, 15, 30 and 60 minutes and added to plates. The reaction was stopped by the addition of 5 volumes of cold acetonitrile and a solution containing 100 nM alprazolam, 200 nM caffeine and 100 nM tolbutamide.
Sampling. The plates containing the terminated reactions were centrifuged at 4000 rpm for 30 minutes. Supernatant of each compound (40 μL) was transferred into a 96-well analysis plate.
Four compound samples are pooled together into one cassette and diluted by adding 160 μL of pure water. All incubations are performed in duplicate.
Analysis and Data Processing. Quantitative LC-MS analysis is performed, and peak areas are determined from extracted ion chromatograms. Percent parent remaining was calculated from peak area of TC or PC. The slope value, k, is determined by linear regression of the natural logarithm of percent parent remaining vs. incubation time curve. […]

microsomal CLint at 1 μM [µL/min/mg]	Compound
< 50	Cc1cc([C@@H](C)Oc2ccc(Cl)nc2C(N)=O)c2oc(-c3cnc4nn(C)cc4c3)c(C)c(=O)c2c1 [Example 137A, 6-Chloro-3-[(1R)-1-[3,6-dimethyl-2-(2-methylpyrazolo[3,4-b]pyridin-5-yl)-4-oxo-chromen-8-yl]ethoxy]pyridine-2-carboxamide]
< 50	Cc1cc([C@@H](C)Oc2ccc(Cl)nc2S(C)(=N)=O)c2oc(-c3cnn(C)c3)c(C)c(=O)c2c1 (stereo partly drawn) [Example 147A, 8-[(1R)-1-[[6-Chloro-2-(methylsulfonimidoyl)-3-pyridyl]oxy]ethyl]-3,6-dimethyl-2-(1-methylpyrazol-4-yl)chromen-4-one]

Second part, the molecule before the results:

Compound	microsomal CLint at 1 μM [µL/min/mg]
Cc1cc([C@@H](C)Oc2ccc(Cl)nc2S(N)(=O)=O)c2oc(-c3cnn(CC4(O)CC4)c3)c(C)c(=O)c2c1 [Example 128C, 6-Chloro-3-[(1R)-1-[2-[1-[(1-hydroxycyclopropyl)methyl]pyrazol-4-yl]-3,6-dimethyl-4-oxo-chromen-8-yl]ethoxy]pyridine-2-sulfonamide]	< 50
Cc1cc([C@@H](C)Oc2ccc(Cl)nc2C(N)=O)c2oc(-c3cnc4oc(C)nc4c3)c(C)c(=O)c2c1 [Example 130A, 6-Chloro-3-[(1R)-1-[3,6-dimethyl-2-(2-methyloxazolo[5,4-b]pyridin-6-yl)-4-oxo-chromen-8-yl]ethoxy]pyridine-2-carboxamide]	< 50
CONC(=O)c1nc(Cl)ccc1O[C@H](C)c1cc(C)cc2c(=O)c(C)c(-c3ccc4nn(CCO)cc4c3)oc12 [Example 135C, 6-Chloro-3-[(1R)-1-[2-[2-(2-hydroxyethyl)indazol-5-yl]-3,6-dimethyl-4-oxo-chromen-8-yl]ethoxy]-N-methoxy-pyridine-2-carboxamide]	< 50
